Test results: ChEMBL document CHEMBL1124319, “Synthesis of an analogue of tabtoxinine as a potential inhibitor of D-alanine:D-alanine ligase (ADP forming)” (J Med Chem, 1989)
pIC50: −log10 of the molar value. Calls of active or inactive are those of the source. No cut-off for these calls is given here.

Legend:
Staphylococcus aureus = assay: Antibacterial activity against Staphylococcus aureus; Inactive; format: functional, organism-based
Escherichia coli = assay: Antibacterial activity against Escherichia coli; Inactive; format: functional, organism-based
[1] = Compound was tested for its inhibitory activity against DAla-DAla Ligase at 1 mM; No activity; set-up: species or system Enterococcus faecalis
[2] = Compound was tested for its inhibitory activity against DAla-DAla Ligase; set-up: species or system Enterococcus faecalis

Row | IC50 [1] | SMILES | Activity (Staphylococcus aureus) | Activity (Escherichia coli) | pIC50 [2]
1 | Not Active | C[C@@H](N)[C@@]1(O)CNC1=O | inactive | inactive | 
2 |  | CC(N)P(=O)(O)O (stereo not drawn) |  |  | 3.03
3 |  | N[C@@H]1CONC1=O [CYCLOSERINE] |  |  | 3.60
4 | Not Active | C[C@@H](N)[C@]1(O)CNC1=O | inactive | inactive | 
